In patent publication US20260356804A1, “SODIUM CHANNEL BLOCKING COMPOUNDS, DERIVATIVES THEREOF, AND METHODS OF THEIR USE” (LATIGO BIOTHERAPEUTICS, INC., priority 2022, published 2026) one finds IC50 data, which are given here for 28 compounds.

The assay deals with T1, human Nav1.8/b3 (Homo sapiens, UniProt Q9Y5Y9).
T1 construct: expressed in transfected cells; host or cells: CHO
In words: Compound Profiling Human NaV1.8/β3 Cell Line—SyncroPatch384PE Assay (automated patch clamp, stably transfected CHO cells). It counts as cell-based. The conditions noted are these: Nav1.8/b3 CHO cells. (The patch-clamp technique gives a direct electrical read-out from membranes.)

Setting [1] is: P1 (IC50, resting state block), P1 measurement, resting state block, holding potential −120 mV, second set of compounds.
[2] abbreviates: P2 (IC50, inactivated state block), P2 measurement, inactivated state block, inactivation step −35 mV 10 sec, second set of compounds.
The mark [3] stands for this setting: P1 (IC50, resting state block), P1 measurement, resting state block, holding potential −120 mV, third set of compounds.
[4] abbreviates: P2 (IC50, inactivated state block), P2 measurement, inactivated state block, inactivation step −35 mV 10 sec, third set of compounds.
[5] abbreviates: P1 (IC50, resting state block), P1 measurement, resting state block, holding potential −120 mV, first set of compounds.
The mark [6] stands for this setting: P2 (IC50, inactivated state block), P2 measurement, inactivated state block, inactivation step −35 mV 10 sec, first set of compounds.
Where [7] appears, read: P1 (IC50, resting state block), P1 measurement, resting state block, holding potential −120 mV, fourth set of compounds.
Where [8] appears, read: P2 (IC50, inactivated state block), P2 measurement, inactivated state block, inactivation step −35 mV 10 sec, fourth set of compounds.
[9] abbreviates: P1 measurement, resting state block, holding potential −120 mV, third set of compounds, read-out: P1 (IC50, resting state block).
The mark [10] stands for this setting: P2 measurement, inactivated state block, inactivation step −35 mV 10 sec, third set of compounds, read-out: P2 (IC50, inactivated state block).

Molecules are shown by their SMILES. Where two headings read alike, the source gives them in different places. Some results are limits rather than exact numbers.

T1 sequence (Q9Y5Y9 whole entry): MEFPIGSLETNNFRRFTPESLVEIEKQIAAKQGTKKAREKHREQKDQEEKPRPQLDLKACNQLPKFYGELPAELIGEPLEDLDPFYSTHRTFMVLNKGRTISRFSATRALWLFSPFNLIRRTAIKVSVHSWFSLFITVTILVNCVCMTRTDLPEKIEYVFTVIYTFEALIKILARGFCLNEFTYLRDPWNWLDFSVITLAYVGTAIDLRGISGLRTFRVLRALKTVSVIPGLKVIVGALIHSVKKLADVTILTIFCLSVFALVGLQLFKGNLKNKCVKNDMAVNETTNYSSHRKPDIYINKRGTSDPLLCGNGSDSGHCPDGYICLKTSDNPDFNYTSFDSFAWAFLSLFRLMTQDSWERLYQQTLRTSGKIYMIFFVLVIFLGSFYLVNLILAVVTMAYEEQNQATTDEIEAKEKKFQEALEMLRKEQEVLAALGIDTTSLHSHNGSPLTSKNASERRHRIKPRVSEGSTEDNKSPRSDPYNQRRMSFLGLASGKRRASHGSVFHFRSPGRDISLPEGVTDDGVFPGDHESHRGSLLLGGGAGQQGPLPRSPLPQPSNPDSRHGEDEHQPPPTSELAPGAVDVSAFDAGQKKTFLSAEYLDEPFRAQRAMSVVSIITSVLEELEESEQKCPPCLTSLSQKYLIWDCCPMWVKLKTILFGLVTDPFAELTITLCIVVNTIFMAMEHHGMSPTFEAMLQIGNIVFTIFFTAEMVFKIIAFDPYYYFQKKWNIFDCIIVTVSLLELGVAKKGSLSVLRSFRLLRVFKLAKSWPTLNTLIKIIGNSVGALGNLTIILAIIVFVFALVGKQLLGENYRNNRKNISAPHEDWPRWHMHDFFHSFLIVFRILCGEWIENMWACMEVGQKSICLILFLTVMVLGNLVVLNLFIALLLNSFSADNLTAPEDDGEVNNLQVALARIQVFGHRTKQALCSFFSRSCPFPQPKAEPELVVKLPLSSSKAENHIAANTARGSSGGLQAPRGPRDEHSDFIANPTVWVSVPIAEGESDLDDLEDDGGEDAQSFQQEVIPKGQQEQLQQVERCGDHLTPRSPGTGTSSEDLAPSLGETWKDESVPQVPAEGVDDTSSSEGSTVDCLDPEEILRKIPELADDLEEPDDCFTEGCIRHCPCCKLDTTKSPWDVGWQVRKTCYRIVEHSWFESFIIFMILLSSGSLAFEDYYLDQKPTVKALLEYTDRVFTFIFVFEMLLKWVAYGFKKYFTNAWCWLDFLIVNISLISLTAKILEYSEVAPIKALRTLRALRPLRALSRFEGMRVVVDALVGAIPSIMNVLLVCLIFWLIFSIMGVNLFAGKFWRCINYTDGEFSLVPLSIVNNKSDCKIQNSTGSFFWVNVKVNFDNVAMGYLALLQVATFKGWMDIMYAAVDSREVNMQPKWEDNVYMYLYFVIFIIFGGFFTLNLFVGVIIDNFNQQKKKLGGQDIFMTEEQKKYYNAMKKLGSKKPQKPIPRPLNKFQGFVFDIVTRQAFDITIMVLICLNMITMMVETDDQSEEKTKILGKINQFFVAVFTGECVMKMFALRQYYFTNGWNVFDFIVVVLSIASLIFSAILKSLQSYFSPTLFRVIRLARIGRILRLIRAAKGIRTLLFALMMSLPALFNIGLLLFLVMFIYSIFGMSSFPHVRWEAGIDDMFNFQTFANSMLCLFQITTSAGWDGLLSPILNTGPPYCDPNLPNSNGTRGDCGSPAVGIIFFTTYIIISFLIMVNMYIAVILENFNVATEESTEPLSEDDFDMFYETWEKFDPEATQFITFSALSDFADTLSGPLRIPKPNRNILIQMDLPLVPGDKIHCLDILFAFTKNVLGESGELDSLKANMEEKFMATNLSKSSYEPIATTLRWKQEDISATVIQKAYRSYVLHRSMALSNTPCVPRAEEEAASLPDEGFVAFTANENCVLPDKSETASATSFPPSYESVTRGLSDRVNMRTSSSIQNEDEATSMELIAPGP
T1 sequence (Q9NY72 23-215 partner): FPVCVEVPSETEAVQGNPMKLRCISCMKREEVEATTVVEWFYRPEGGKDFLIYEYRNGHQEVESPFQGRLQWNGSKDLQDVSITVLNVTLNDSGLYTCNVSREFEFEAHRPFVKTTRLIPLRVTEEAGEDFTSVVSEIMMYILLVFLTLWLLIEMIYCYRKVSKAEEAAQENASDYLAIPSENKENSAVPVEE

For the compound `[2H]C([2H])([2H])c1nc(F)ccc1Oc1cc(C(F)(F)F)c(Cl)cc1C(=O)Nc1ccnc([S@](C)(=N)=O)c1` [Example 13A, (R)-5-chloro-2-((6-fluoro-2-(methyl-d3)pyridin-3-yl)oxy)-N-(2-(S-methylsulfonimidoyl)pyridin-4-yl)-4-(trifluoromethyl)benzamide], the IC50 by setting is: (P1 measurement, resting state block, holding potential −120 mV, first set of compounds, read-out: P1 (IC50, resting state block)) under 5 nM; (P2 measurement, inactivated state block, inactivation step −35 mV 10 sec, first set of compounds, read-out: P2 (IC50, inactivated state block)) under 5 nM.

For the compound `Cc1nc(F)ccc1Oc1ccc(C(F)(F)F)c(C)c1C(=O)Nc1cccc([S@@](C)(=O)=NC(=O)[C@@H]2CCCN2)c1` [Example 22B], the half-maximal inhibitory concentration (IC50) was under 5 nM under setting [1] and under 5 nM under setting [2].

`Cc1ccc(Oc2ncc(C(F)(F)F)c(C)c2C(=O)Nc2cccc([S@@](C)(=N)=O)c2)c(F)n1` [Example 121C]: the IC50 reads like this: under setting [3], 50 to 100 nM; under setting [4], 50 to 100 nM.

As to `Cc1nc(F)ccc1Oc1nc(C(F)(F)F)c(C#N)c(C)c1C(=O)Nc1cccc([S@](C)(=N)=O)c1` [Example 113C], the IC50 runs as follows: under setting [3], 5 to 50 nM; under setting [4], 5 to 50 nM.

`Cc1nc(F)ccc1Oc1cc(C(F)(F)F)c(Cl)cc1C(=O)Nc1ccc([S@](C)(=N)=O)cc1` [Example 49A]: the IC50 fell in the range of 50 to 100 nM under setting [5] and 50 to 100 nM under setting [6].

`Cc1nc(F)ccc1Oc1cc(C(F)(F)F)ccc1C(=O)Nc1cccc([S@@](C)(=O)=NC(=O)[C@@H](C)N)c1` [Example 9B, N-(3-((R)—N-(D-alanyl)-S-methylsulfonimidoyl)phenyl)-2-((6-fluoro-2-methylpyridin-3-yl)oxy)-4-(trifluoromethyl)benzamide]: the half-inhibitory concentration (IC50) is under 5 nM under setting [1] and under 5 nM under setting [2].

On to `Cc1nc(F)ccc1Oc1nc(C2CC2)c(C(F)(F)F)c(C)c1C(=O)Nc1cccc([S@](C)(=N)=O)c1` [Example 108C], for which the IC50 reads like this: (read-out: P1 (IC50, resting state block), P1 measurement, resting state block, holding potential −120 mV, third set of compounds) under 5 nM; (read-out: P2 (IC50, inactivated state block), P2 measurement, inactivated state block, inactivation step −35 mV 10 sec, third set of compounds) under 5 nM.

As for `COc1cc(C#N)ccc1Oc1ncc(C(F)(F)F)c(C)c1C(=O)Nc1cccc(S(N)(=O)=O)c1` [Example 28C, 2-(4-cyano-2-methoxyphenoxy)-4-methyl-N-(3-sulfamoylphenyl)-5-(trifluoromethyl)nicotinamide], the IC50 is under 5 nM under setting [3] and under 5 nM under setting [4].

Consider `Cc1nc(F)ccc1Oc1nnc(C(F)(F)F)c(C)c1C(=O)Nc1cccc([S@@](C)(=O)=NC(=O)[C@@H](C)N)c1` [Example 21D, N-(3-((R)—N-(D-alanyl)-S-methylsulfonimidoyl)phenyl)-3-((6-fluoro-2-methylpyridin-3-yl)oxy)-5-methyl-6-(trifluoromethyl)pyridazine-4-carboxamide], for which the IC50 is, setting by setting: under setting [7], under 5 nM; under setting [8], under 5 nM.

Turning to `Cc1nc(F)ccc1Oc1ncc(C(F)(F)F)c(C)c1C(=O)Nc1cccc(C(N)=O)c1` [Example 119C], the IC50 by setting is: under setting [3], under 5 nM; under setting [4], under 5 nM.

With `Cc1nc(F)ccc1Oc1ncc(C(F)(F)F)c(C)c1C(=O)Nc1ccc(C(N)=O)cc1` [Example 118C], the IC50 runs as follows: under setting [3], under 5 nM; under setting [4], under 5 nM.

Consider `Cc1nc(F)ccc1Oc1ncc(C2CCC2)c(C)c1C(=O)Nc1cccc([S@](C)(=N)=O)c1` [Example 99C], for which the IC50 is, setting by setting: under setting [3], 5 to 50 nM; under setting [4], 5 to 50 nM.

`COc1cc(C#N)ccc1Oc1ncc(-c2ccc(C(F)F)cc2)c(C)c1C(=O)Nc1cccc([S@](C)(=N)=O)c1` [Example 23C, (R)-2-(4-cyano-2-methoxyphenoxy)-5-(4-(difluoromethyl)phenyl)-4-methyl-N-(3-(S-methylsulfonimidoyl)phenyl)nicotinamide]: the IC50 reads like this: under setting [3], under 5 nM; under setting [4], under 5 nM.

On to `Cc1nc(F)ccc1Oc1cc(C(F)(F)F)c(Cl)c(C)c1C(=O)Nc1ccnc([S@@](C)(=N)=O)c1` [Example 60A], for which the IC50 under setting [5] is under 5 nM and the IC50 under setting [6] was under 5 nM.

`COc1cc(C#N)ccc1Oc1ncc(-c2ccc(C#N)cc2)c(C)c1C(=O)Nc1cccc([S@](C)(=N)=O)c1` [Example 20C, (R)-2-(4-cyano-2-methoxyphenoxy)-5-(4-cyanophenyl)-4-methyl-N-(3-(S-methylsulfonimidoyl)phenyl)nicotinamide]: the IC50 lay in the range of 5 to 50 nM under setting [3] and 5 to 50 nM under setting [4].

For `Cc1nc(F)ccc1Oc1ccc(C(F)(F)F)c(C)c1C(=O)Nc1cccc([S@](C)(=N)=O)c1` [Example 3A, (R)-6-((6-fluoro-2-methylpyridin-3-yl)oxy)-2-methyl-N-(3-(S-methylsulfonimidoyl)phenyl)-3-(trifluoromethyl)benzamide], the IC50 is under 5 nM under setting [5] and under 5 nM under setting [6].

In the case of `Cc1nc(F)ccc1Oc1ncc(C(F)(F)F)c(C)c1C(=O)Nc1cccc([S@@](C)(=O)=NC(=O)[C@H]2CCOC2)c1` [Example 15D, 2-((6-fluoro-2-methylpyridin-3-yl)oxy)-4-methyl-N-(3-((R)—S-methyl-N—((S)-tetrahydrofuran-3-carbonyl)sulfonimidoyl)phenyl)-5-(trifluoromethyl)nicotinamide], the IC50 is, setting by setting: under setting [7], under 5 nM; under setting [8], under 5 nM.

Consider `Cc1nc(F)ccc1Oc1ncc(C(F)(F)F)c(C)c1C(=O)Nc1cccc([S@@](C)(=O)=NC(=O)C2(N)CC2)c1` [Example 5D, (R)—N-(3-(N-(1-aminocyclopropane-1-carbonyl)-S-methylsulfonimidoyl)phenyl)-2-((6-fluoro-2-methylpyridin-3-yl)oxy)-4-methyl-5-(trifluoromethyl)nicotinamide], for which the IC50 is, setting by setting: under setting [7], under 5 nM; under setting [8], under 5 nM.

`Cc1nc(F)ccc1Oc1ncc(C(F)(F)F)c(C)c1C(=O)Nc1cccc(S(N)(=O)=O)c1` [Example 8C, 2-((6-fluoro-2-methylpyridin-3-yl)oxy)-4-methyl-N-(3-sulfamoylphenyl)-5-(trifluoromethyl)nicotinamide] gave an IC50 under setting [3] of under 5 nM and an IC50 under setting [4] of under 5 nM.

`Cc1nc(F)ccc1Oc1cc(C2CC2)c(C(F)(F)F)c(C)c1C(=O)Nc1cccc([S@@](C)(=N)=O)c1` [Example 42A] had an IC50 under setting [5] of under 5 nM and an IC50 under setting [6] of under 5 nM.

For `Cc1nc(F)ccc1Oc1ccc(-c2cnn(C)c2)c(C)c1C(=O)Nc1cccc([S@](C)(=N)=O)c1` [Example 7A, (R)-6-((6-fluoro-2-methylpyridin-3-yl)oxy)-2-methyl-3-(1-methyl-1H-pyrazol-4-yl)-N-(3-(S-methylsulfonimidoyl)phenyl)benzamide], the IC50 runs as follows: under setting [5], over 200 nM; under setting [6], over 200 nM.

Consider `Cc1nc(F)ccc1Oc1cnc(C(F)(F)F)c(Cl)c1C(=O)Nc1cccc([S@](C)(=N)=O)c1` [Example 45C, (R)-3-chloro-5-((6-fluoro-2-methylpyridin-3-yl)oxy)-N-(3-(S-methylsulfonimidoyl)phenyl)-2-(trifluoromethyl)isonicotinamide], for which the IC50 was under 5 nM under setting [9] and under 5 nM under setting [10].

With `Cc1nc(F)ccc1Oc1cc(C(F)(F)F)c(Cl)cc1C(=O)Nc1ccc(F)c([S@@+](C)[O-])c1` [Example 56A], the IC50 was under 5 nM under setting [5] and under 5 nM under setting [6].

Take `COCC(=O)N=[S@](C)(=O)c1cccc(NC(=O)c2c(Oc3ccc(F)nc3C)ncc(C(F)(F)F)c2C)c1` [Example 8D, (R)-2-((6-fluoro-2-methylpyridin-3-yl)oxy)-N-(3-(N-(2-methoxyacetyl)-S-methylsulfonimidoyl)phenyl)-4-methyl-5-(trifluoromethyl)nicotinamide]: the IC50 is under 5 nM under setting [7] and under 5 nM under setting [8].

In turn, `COc1cc(C#N)ccc1Oc1ncc(-c2ccc(C(F)F)cc2)c(C)c1C(=O)Nc1ccnc([S@@](C)(=N)=O)c1` [Example 16C, (S)-2-(4-cyano-2-methoxyphenoxy)-5-(4-(difluoromethyl)phenyl)-4-methyl-N-(2-(S-methylsulfonimidoyl)pyridin-4-yl)nicotinamide] came in with an IC50 under setting [3] of over 200 nM and an IC50 under setting [4] of over 200 nM.

In the case of `Cc1nc(F)ccc1Oc1cc(C2CC2)c(C(F)(F)F)cc1C(=O)Nc1ccnc([S@](C)(=N)=O)c1` [Example 58A], the IC50 runs as follows: under setting [5], under 5 nM; under setting [6], under 5 nM.

`Cc1nc(F)ccc1Oc1c(C2CC2)ncc(F)c1C(=O)Nc1cccc([S@](C)(=N)=O)c1` [Example 37C, (R)-2-cyclopropyl-5-fluoro-3-((6-fluoro-2-methylpyridin-3-yl)oxy)-N-(3-(S-methylsulfonimidoyl)phenyl)isonicotinamide]: the IC50 was over 200 nM under setting [9] and over 200 nM under setting [10].

With `Cc1nc(F)ccc1Oc1nc(C(F)(F)F)c(Cl)c(C)c1C(=O)Nc1cccc([S@](C)(=N)=O)c1` [Example 35C, (R)-5-chloro-2-((6-fluoro-2-methylpyridin-3-yl)oxy)-4-methyl-N-(3-(S-methylsulfonimidoyl)phenyl)-6-(trifluoromethyl)nicotinamide], the IC50 was under 5 nM under setting [3] and under 5 nM under setting [4].

The IC50 is the point on the concentration scale where inhibition reaches its midpoint.
